Test results from ChEMBL document CHEMBL3217615, “Novel 3,5-bis(arylidiene)-4-piperidone based monocarbonyl analogs of curcumin: anticancer activity evaluation and mode of action study” (2014).

Columns and labels:
Assay type in all cases: functional
[1] = Growth inhibition of human NCI-ADR-RES cells assessed as cell growth at 10^-5 M after 48 hrs by sulforhodamine B assay; conditions: read-out: Activity
[2] = system: SW-620; assay: Growth inhibition of human SW620 cells assessed as cell growth at 10^-5 M after 48 hrs by sulforhodamine B assay; conditions: SW-620, 48 h, read-out: Activity
[3] = system: COLO 205; assay: Growth inhibition of human COLO205 cells assessed as cell growth at 10^-5 M after 48 hrs by sulforhodamine B assay; conditions: COLO 205, 48 h, read-out: Activity
[4] = Growth inhibition of human OVCAR3 cells assessed as cell growth at 10^-5 M after 48 hrs by sulforhodamine B assay; conditions: OVCAR-3, 48 h, read-out: Activity
[5] = system: SF-268; assay: Growth inhibition of human SF268 cells assessed as cell growth at 10^-5 M after 48 hrs by sulforhodamine B assay; conditions: SF-268, 48 h, read-out: Activity
[6] = system: SK-MEL-5; assay: Growth inhibition of human SK-MEL-5 cells assessed as cell growth at 10^-5 M after 48 hrs by sulforhodamine B assay; conditions: SK-MEL-5, 48 h, read-out: Activity
[7] = system: SR; assay: Growth inhibition of human SR cells assessed as cell growth at 10^-5 M after 48 hrs by sulforhodamine B assay; conditions: read-out: Activity
[8] = system: SK-MEL-28; assay: Growth inhibition of human SK-MEL-28 cells assessed as cell growth at 10^-5 M after 48 hrs by sulforhodamine B assay; conditions: SK-MEL-28, 48 h, read-out: Activity
[9] = system: CAKI-1; assay: Growth inhibition of human CAKI-1 cells assessed as cell growth at 10^-5 M after 48 hrs by sulforhodamine B assay; conditions: CAKI-1, 48 h, read-out: Activity
[10] = system: RPMI-8226; assay: Growth inhibition of human RPMI8226 cells assessed as cell growth at 10^-5 M after 48 hrs by sulforhodamine B assay; conditions: RPMI-8226, 48 h, read-out: Activity
[11] = system: SK-OV-3; assay: Growth inhibition of human SKOV3 cells assessed as cell growth at 10^-5 M after 48 hrs by sulforhodamine B assay; conditions: SK-OV-3, 48 h, read-out: Activity
[12] = system: NCI-H226; assay: Growth inhibition of human NCI-H226 cells assessed as cell growth at 10^-5 M after 48 hrs by sulforhodamine B assay; conditions: NCI-H226, 48 h, read-out: Activity
[13] = system: ACHN; assay: Growth inhibition of human ACHN cells assessed as cell growth at 10^-5 M after 48 hrs by sulforhodamine B assay; conditions: read-out: Activity
[14] = system: HOP-62; assay: Growth inhibition of human HOP62 cells assessed as cell growth at 10^-5 M after 48 hrs by sulforhodamine B assay; conditions: HOP-62, 48 h, read-out: Activity
[15] = Growth inhibition of human HCC2998 cells assessed as cell growth at 10^-5 M after 48 hrs by sulforhodamine B assay; conditions: HCC 2998, 48 h, read-out: Activity
[16] = system: MDA-MB-468; assay: Growth inhibition of human MDA-MB-468 cells assessed as cell growth at 10^-5 M after 48 hrs by sulforhodamine B assay; conditions: MDA-MB-468, 48 h, read-out: Activity
[17] = system: HT-29; assay: Growth inhibition of human HT-29 cells assessed as cell growth at 10^-5 M after 48 hrs by sulforhodamine B assay; conditions: HT-29, 48 h, read-out: Activity
[18] = Growth inhibition of human OVCAR4 cells assessed as cell growth at 10^-5 M after 48 hrs by sulforhodamine B assay; conditions: OVCAR-4, 48 h, read-out: Activity
[19] = system: KM12; assay: Growth inhibition of human KM12 cells assessed as cell growth at 10^-5 M after 48 hrs by sulforhodamine B assay; conditions: KM12, 48 h, read-out: Activity
[20] = system: A498; assay: Growth inhibition of human A498 cells assessed as cell growth at 10^-5 M after 48 hrs by sulforhodamine B assay; conditions: A498, 48 h, read-out: Activity
[21] = Growth inhibition of human BT549 cells assessed as cell growth at 10^-5 M after 48 hrs by sulforhodamine B assay; conditions: BT-549, 48 h, read-out: Activity
[22] = system: CCRF-CEM; assay: Growth inhibition of human CCRF-CEM cells assessed as cell growth at 10^-5 M after 48 hrs by sulforhodamine B assay; conditions: read-out: Activity
[23] = Growth inhibition of human Hs 578T cells assessed as cell growth at 10^-5 M after 48 hrs by sulforhodamine B assay; conditions: read-out: Activity
[24] = Growth inhibition of human UACC62 cells assessed as cell growth at 10^-5 M after 48 hrs by sulforhodamine B assay; conditions: UACC-62, 48 h, read-out: Activity
[25] = system: M14; assay: Growth inhibition of human M14 cells assessed as cell growth at 10^-5 M after 48 hrs by sulforhodamine B assay; conditions: M14, 48 h, read-out: Activity
[26] = Growth inhibition of human RXF393 cells assessed as cell growth at 10^-5 M after 48 hrs by sulforhodamine B assay; conditions: RXF 393, 48 h, read-out: Activity
[27] = system: HL-60(TB); assay: Growth inhibition of human HL-60(TB) cells assessed as cell growth at 10^-5 M after 48 hrs by sulforhodamine B assay; conditions: HL-60, 48 h, read-out: Activity
[28] = system: MDA-MB-435; assay: Growth inhibition of human MDA-MB-435 cells assessed as cell growth at 10^-5 M after 48 hrs by sulforhodamine B assay; conditions: MDA-MB-435, 48 h, read-out: Activity
[29] = system: DU-145; assay: Growth inhibition of human DU145 cells assessed as cell growth at 10^-5 M after 48 hrs by sulforhodamine B assay; conditions: DU-145, 48 h, read-out: Activity
[30] = system: IGROV-1; assay: Growth inhibition of human IGROV1 cells assessed as cell growth at 10^-5 M after 48 hrs by sulforhodamine B assay; conditions: IGROV-1, 48 h, read-out: Activity
[31] = Growth inhibition of human HCT15 cells assessed as cell growth at 10^-5 M after 48 hrs by sulforhodamine B assay; conditions: HCT-15, 48 h, read-out: Activity
[32] = Growth inhibition of human OVCAR5 cells assessed as cell growth at 10^-5 M after 48 hrs by sulforhodamine B assay; conditions: OVCAR-5, 48 h, read-out: Activity
[33] = system: T47D; assay: Growth inhibition of human T47D cells assessed as cell growth at 10^-5 M after 48 hrs by sulforhodamine B assay; conditions: read-out: Activity
[34] = Growth inhibition of human OVCAR8 cells assessed as cell growth at 10^-5 M after 48 hrs by sulforhodamine B assay; conditions: OVCAR-8, 48 h, read-out: Activity
[35] = system: NCI-H322M; assay: Growth inhibition of human NCI-H322M cells assessed as cell growth at 10^-5 M after 48 hrs by sulforhodamine B assay; conditions: read-out: Activity
[36] = system: 786-0; assay: Growth inhibition of human 786-0 cells assessed as cell growth at 10^-5 M after 48 hrs by sulforhodamine B assay; conditions: 786-0, 48 h, read-out: Activity

Compound: Cc1ccc(S(=O)(=O)N2C/C(=C\c3cc(F)cc(F)c3)C(=O)/C(=C/c3cc(F)cc(F)c3)C2)cc1
- growth at 10 µM [1]: 7.23%
- growth at 10 µM [2]: -79%
- growth at 10 µM [3]: -73%
- growth at 10 µM [4]: -84%
- growth at 10 µM [5]: -43%
- growth at 10 µM [6]: -92%
- growth at 10 µM [7]: -21%
- growth at 10 µM [8]: -87%
- growth at 10 µM [9]: -25%
- growth at 10 µM [10]: -36%
- growth at 10 µM [11]: -26%
- growth at 10 µM [12]: 47%
- growth at 10 µM [13]: -91.4%
- growth at 10 µM [14]: -60%
- growth at 10 µM [15]: -89%
- growth at 10 µM [16]: -73%
- growth at 10 µM [17]: -78%
- growth at 10 µM [18]: -31.4%
- growth at 10 µM [19]: -82%
- growth at 10 µM [20]: -59%
- growth at 10 µM [21]: -89%
- growth at 10 µM [22]: -23%
- growth at 10 µM [23]: 8%
- growth at 10 µM [24]: -96%
- growth at 10 µM [25]: -68%
- growth at 10 µM [26]: -88%
- growth at 10 µM [27]: -14%
- growth at 10 µM [28]: -76.6%
- growth at 10 µM [29]: -65%
- growth at 10 µM [30]: -77%
- growth at 10 µM [31]: -35%
- growth at 10 µM [32]: -65%
- growth at 10 µM [33]: -20%
- growth at 10 µM [34]: -44%
- growth at 10 µM [35]: 25%
- growth at 10 µM [36]: -87%

Compound: Cc1ccc(S(=O)(=O)N2C/C(=C\c3c(Cl)cccc3Cl)C(=O)/C(=C/c3c(Cl)cccc3Cl)C2)cc1
- growth at 10 µM [1]: 90.9%
- growth at 10 µM [2]: 101%
- growth at 10 µM [3]: 110%
- growth at 10 µM [4]: 84%
- growth at 10 µM [5]: 83.6%
- growth at 10 µM [6]: 85%
- growth at 10 µM [7]: 71.1%
- growth at 10 µM [8]: 101%
- growth at 10 µM [9]: 61.6%
- growth at 10 µM [10]: 82.9%
- growth at 10 µM [11]: 93.7%
- growth at 10 µM [12]: 98.1%
- growth at 10 µM [13]: 84.2%
- growth at 10 µM [14]: 94.5%
- growth at 10 µM [15]: 114%
- growth at 10 µM [16]: 90.4%
- growth at 10 µM [17]: 83.7%
- growth at 10 µM [18]: 85.3%
- growth at 10 µM [19]: 88.7%
- growth at 10 µM [20]: 109%
- growth at 10 µM [21]: 101%
- growth at 10 µM [22]: 72.7%
- growth at 10 µM [23]: 101%
- growth at 10 µM [24]: 69.5%
- growth at 10 µM [25]: 79.1%
- growth at 10 µM [26]: 101%
- growth at 10 µM [27]: 94.5%
- growth at 10 µM [28]: 93.5%
- growth at 10 µM [29]: 96.8%
- growth at 10 µM [30]: 104%
- growth at 10 µM [31]: 80.7%
- growth at 10 µM [32]: 103%
- growth at 10 µM [33]: 94%
- growth at 10 µM [34]: 79.6%
- growth at 10 µM [35]: 93.5%
- growth at 10 µM [36]: 93.3%

Compound: O=C1/C(=C/c2ccc(Cl)cc2Cl)CN(S(=O)(=O)c2ccccc2)C/C1=C\c1ccc(Cl)cc1Cl
- growth at 10 µM [1]: 20.5%
- growth at 10 µM [2]: -15.2%
- growth at 10 µM [3]: -38%
- growth at 10 µM [4]: -67%
- growth at 10 µM [5]: 4.96%
- growth at 10 µM [6]: 47%
- growth at 10 µM [7]: -11.6%
- growth at 10 µM [8]: 27%
- growth at 10 µM [9]: -66.1%
- growth at 10 µM [10]: -29%
- growth at 10 µM [11]: 44%
- growth at 10 µM [12]: -62%
- growth at 10 µM [13]: -24%
- growth at 10 µM [14]: -2.25%
- growth at 10 µM [15]: -83%
- growth at 10 µM [16]: -38%
- growth at 10 µM [17]: -27.5%
- growth at 10 µM [18]: 8%
- growth at 10 µM [19]: -57.2%
- growth at 10 µM [20]: -27%
- growth at 10 µM [21]: -72.8%
- growth at 10 µM [22]: -14%
- growth at 10 µM [24]: -79%
- growth at 10 µM [25]: 17%
- growth at 10 µM [26]: -87%
- growth at 10 µM [27]: -24%
- growth at 10 µM [28]: -48%
- growth at 10 µM [29]: 4%
- growth at 10 µM [30]: -39%
- growth at 10 µM [31]: -23%
- growth at 10 µM [32]: -12%
- growth at 10 µM [33]: 7%
- growth at 10 µM [34]: -9%
- growth at 10 µM [35]: -29%
- growth at 10 µM [36]: -91%

Compound: O=C1/C(=C/c2c(Cl)cccc2Cl)CN(S(=O)(=O)c2ccccc2)C/C1=C\c1c(Cl)cccc1Cl
- growth at 10 µM [1]: 81.6%
- growth at 10 µM [2]: 89.4%
- growth at 10 µM [3]: 92.4%
- growth at 10 µM [4]: 73.9%
- growth at 10 µM [5]: 78.6%
- growth at 10 µM [6]: 85.3%
- growth at 10 µM [7]: 52.7%
- growth at 10 µM [8]: 88.1%
- growth at 10 µM [9]: 136%
- growth at 10 µM [10]: 63.3%
- growth at 10 µM [11]: 91.9%
- growth at 10 µM [12]: 110%
- growth at 10 µM [13]: 76.3%
- growth at 10 µM [14]: 100%
- growth at 10 µM [15]: 103%
- growth at 10 µM [16]: 80.4%
- growth at 10 µM [17]: 71.5%
- growth at 10 µM [18]: 84.6%
- growth at 10 µM [19]: 74.8%
- growth at 10 µM [20]: 91.6%
- growth at 10 µM [21]: 89.3%
- growth at 10 µM [22]: 42.4%
- growth at 10 µM [23]: 93%
- growth at 10 µM [24]: 60.5%
- growth at 10 µM [25]: 66.3%
- growth at 10 µM [26]: 95.3%
- growth at 10 µM [27]: 81%
- growth at 10 µM [28]: 72.7%
- growth at 10 µM [29]: 85.8%
- growth at 10 µM [30]: 100%
- growth at 10 µM [31]: 62%
- growth at 10 µM [32]: 103%
- growth at 10 µM [33]: 88.8%
- growth at 10 µM [34]: 77.3%
- growth at 10 µM [35]: 85%
- growth at 10 µM [36]: 93%
